27 compounds from patent publication US6706757B2, “Chroman derivatives as 5-hydroxytryptamine-6 ligands” (Wyeth, priority 2001, dated 2004) can be followed below.

The target of the assay is T1, human cloned 5-HT6 receptors (Homo sapiens, UniProt P50406).
T1 construct: expressed in transfected cells; host or cells: HeLa cells (membrane preparation)
The assay is described as follows: 5-HT6 binding affinity, [3H]-LSD displacement on membranes of Hela cells expressing human cloned 5-HT6 receptors. The note with it: [3H]-LSD 3.0 nM, Hela cell membranes, 120 min at room temperature. On the procedure: The affinity of test compounds for the serotonin 5-HT6 receptor is evaluated in the following manner. Cultured Hela cells expressing human cloned 5-HT6 receptors are harvested and centrifuged at low speed (1,000×g) for 10.0 min to remove the culture media. The harvested cells are suspended in half volume of fresh physiological phosphate buffered saline solution and recentrifuged at the same speed. This operation is repeated. The collected cells are then homogenized in ten volumes of 50 mM Tris.HCl (pH 7.4) and 0.5 mM EDTA. The homogenate is centrifuged at 40,000×g for 30.0 min and the precipitate is collected. The obtained pellet is resuspended in 10 volumes of Tris.HCl buffer and recentrifuged at the same speed. The final pellet is suspended in a small volume of Tris.HCl buffer and the tissue protein content is determined in aliquots of 10-25 μl volumes. Bovine Serum Albumin is used as the standard in the protein determination according to the method described in Lowry et al., J. Biol. Chem., 193:265 (1951). The volume of the suspended cell membranes is adjusted to give a tissue protein concentration of 1.0 mg/ml of suspension. The prepared membrane suspension (10 times concentrated) is aliquoted in 1.0 ml volumes and stored at −70° C. until used in subsequent binding experiments.
Binding experiments are performed in a 96 well microtiter plate format, in a total volume of 200 μl. […] The test compounds are added in 20.0 μl volume.
The reaction is allowed to proceed in the dark for 120 min at room temperature, at which time, the bound ligand-receptor complex is filtered off on a 96 well unifilter with a Packard Filtermate® 196 Harvester. The bound complex caught on the filter disk is allowed to air dry and the radioactivity is measured in a Packard TopCount® equipped with six photomultiplier detectors, after the addition of 40.0 μl Microscint®-20 scintillant to each shallow well. The unifilter plate is heat-sealed and counted in a PackardTopCount® with a tritium efficiency of 31.0%.
Binding in the presence of varying concentrations of test compound is expressed as a percentage of specific binding in the absence of test compound. The results are plotted as log % bound versus log concentration of test compound. […] A linear regression line of data points is plotted, from which the IC50 value is determined and the Ki value is determined based upon the following equation: […]
where L is the concentration of the radioactive ligand used and KD is the dissociation constant of the ligand for the receptor, both expressed in nM.

Each structure is given as a SMILES string. Where a name gives a salt, the structure may show the parent alone.

T1 sequence (P50406 whole entry): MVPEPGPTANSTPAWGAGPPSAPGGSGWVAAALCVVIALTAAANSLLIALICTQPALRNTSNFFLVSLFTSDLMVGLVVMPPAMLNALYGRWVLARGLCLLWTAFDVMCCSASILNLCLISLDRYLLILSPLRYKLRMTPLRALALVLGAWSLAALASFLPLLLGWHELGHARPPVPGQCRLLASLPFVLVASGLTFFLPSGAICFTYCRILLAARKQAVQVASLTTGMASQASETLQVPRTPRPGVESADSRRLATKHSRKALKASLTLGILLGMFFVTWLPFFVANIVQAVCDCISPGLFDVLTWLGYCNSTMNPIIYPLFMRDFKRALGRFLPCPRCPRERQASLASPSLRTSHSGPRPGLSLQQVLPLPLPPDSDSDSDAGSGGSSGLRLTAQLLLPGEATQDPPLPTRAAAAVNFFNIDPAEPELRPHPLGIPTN

A word on the Ki: it is the equilibrium dissociation constant of an inhibitor or competing ligand from its target. A higher Ki goes with weaker binding. In turn, `O=S(=O)(Nc1ccc2c(c1)OC(CNCCCO)CC2)c1ccccc1` (stereo not drawn) [Example 5, N-{2-[(3-Hydroxypropylamino)-methyl]chroman-7-yl}benzenesulfonamide Hemifumarate salt] yielded a Ki of 5 nM. The same measure for `COc1cccc(CNCC2CCc3ccc(NS(=O)(=O)c4ccccc4)cc3O2)c1` (stereo not drawn) [Example 6, N-(2-{[(3-methoxybenzyl)amino]methyl}-3,4-dihydro-2H-chromen-7-yl)benzenesulfonamide]: 4 nM.

`CCCCOCCCNCC1CCc2ccc(NS(=O)(=O)c3ccccc3)cc2O1` (stereo not drawn) [Example 7, N-(2-{[(3-butoxypropyl)amino]methyl}-3,4-dihydro-2H-chromen-7-yl)benzenesulfonamide] had a Ki of 2 nM.

For the compound `O=S(=O)(Nc1ccc2c(c1)OC(CNCc1ccccc1)CC2)c1ccccc1` (stereo not drawn) [Example 8, N-{2-[(benzylamino)methyl]-3,4-dihydro-2H-chromen-7-yl}benzenesulfonamide], the Ki is 2 nM.

As to `O=S(=O)(Nc1ccc2c(c1)OC(CNCCCOc1ccccc1)CC2)c1ccccc1` (stereo not drawn) [Example 9, N-(2-{[(3-phenoxypropyl)amino]methyl}-3,4-dihydro-2H-chromen-7-yl)benzenesulfonamide], the Ki amounted to 2 nM.

As for `C[C@@H](NCC1CCc2ccc(NS(=O)(=O)c3ccccc3)cc2O1)c1ccccc1` (stereo partly drawn) [Example 10, N-[2-({[(1R)-1-phenylethyl]amino}methyl)-3,4-dihydro-2H-chromen-7-yl]benzenesulfonamide], the Ki turned out to be 1 nM. The result for `O=S(=O)(Nc1ccc2c(c1)OC(CNCc1ccc3c(c1)OCO3)CC2)c1ccccc1` (stereo not drawn) [Example 11, N-(2-{[(1,3-benzodioxol-5-ylmethyl)amino]methyl}-3,4-dihydro-2H-chromen-7-yl)benzenesulfonamide] reads 2 nM; that for `O=S(=O)(Nc1ccc2c(c1)OC(CNCc1cccnc1)CC2)c1ccccc1` (stereo not drawn) [Example 12, N-(2-{[(pyridin-3-ylmethyl)amino]methyl}-3,4-dihydro-2H-chromen-7-yl)benzenesulfonamide], 5 nM. The result for `O=S(=O)(Nc1ccc2c(c1)OC(CNC1CCc3ccccc31)CC2)c1ccccc1` (stereo not drawn) [Example 13, N-{2-[(2,3-dihydro-1H-inden-1-ylamino)methyl]-3,4-dihydro-2H-chromen-7-yl}benzenesulfonamide] reads 7 nM; that for `C[C@H](NCC1CCc2ccc(NS(=O)(=O)c3ccccc3)cc2O1)c1ccccc1` (stereo partly drawn) [Example 14, N-[2-({[(1S)-1-phenylethyl]amino}methyl)-3,4-dihydro-2H-chromen-7-yl]benzenesulfonamide], 10 nM.

In the case of `O=S(=O)(Nc1ccc2c(c1)OC(CNCc1ccncc1)CC2)c1ccccc1` (stereo not drawn) [Example 15, N-(2-{[(pyridin-4-ylmethyl)amino]methyl}-3,4-dihydro-2H-chromen-7-yl)benzenesulfonamide], the affinity, expressed as Ki, was 17 nM. The same measure for `O=S(=O)(Nc1ccc2c(c1)OC(CN[C@@H](CO)c1ccccc1)CC2)c1ccccc1` (stereo partly drawn) [Example 16, N-[2-({[(1R)-2-hydroxy-1-phenylethyl]amino}methyl)-3,4-dihydro-2H-chromen-7-yl]benzenesulfonamide]: 5 nM; for `O=S(=O)(Nc1ccc2c(c1)OC(CNC(Cc1ccccc1)c1ccccc1)CC2)c1ccccc1` (stereo not drawn) [Example 17, N-(2-{[(1,2-diphenylethyl)amino]methyl}-3,4-dihydro-2H-chromen-7-yl)benzenesulfonamide]: 84 nM; for `CC(C)(CO)NCC1CCc2ccc(NS(=O)(=O)c3ccccc3)cc2O1` (stereo not drawn) [Example 18, N-(2-{[(2-hydroxy-1,1-dimethylethyl)amino]methyl}-3,4-dihydro-2H-chromen-7-yl)benzenesulfonamide]: 41 nM.

In turn, `CC(C)NCC1CCc2ccc(NS(=O)(=O)c3ccccc3)cc2O1` (stereo not drawn) [Example 19, N-{2-[(isopropylamino)methyl]-3,4-dihydro-2H-chromen-7-yl}benzenesulfonamide] gave a Ki of 16 nM. Turning to `CC(CCc1ccccc1)NCC1CCc2ccc(NS(=O)(=O)c3ccccc3)cc2O1` (stereo not drawn) [Example 20, N-(2-{[(1-methyl-3-phenylpropyl)amino]methyl}-3,4-dihydro-2H-chromen-7-yl)benzenesulfonamide], the Ki is 6 nM.

For `CC(C)CCCC(C)NCC1CCc2ccc(NS(=O)(=O)c3ccccc3)cc2O1` (stereo not drawn) [Example 21, N-(2-{[(1,5-dimethylhexyl)amino]methyl}-3,4-dihydro-2H-chromen-7-yl)benzenesulfonamide], the affinity corresponds to a Ki of 8 nM.

Take `CC(C)C[C@H](CO)NCC1CCc2ccc(NS(=O)(=O)c3ccccc3)cc2O1` (stereo partly drawn) [Example 22, N-[2-({[(1R)-1-(hydroxymethyl)-3-methylbutyl]amino}methyl)-3,4-dihydro-2H-chromen-7yl]benzenesulfonamide]: the Ki amounted to 3 nM. Against the preceding compound, the Ki is about 2.7-fold lower. The result for `O=S(=O)(Nc1ccc2c(c1)OC(CN1CCCCC1CCO)CC2)c1ccccc1` (stereo not drawn) [Example 23, N-(2-{[2-(2-hydroxyethyl)piperidin-1-yl]methyl}-3,4-dihydro-2H-chromen-7-yl)benzenesulfonamide] reads 35 nM. In turn, `CC1CCCC(C)N1CC1CCc2ccc(NS(=O)(=O)c3ccccc3)cc2O1` (stereo not drawn) [Example 24, N-{2-[(2,6-dimethylpiperidin-1-yl)methyl]-3,4-dihydro-2H-chromen-7-yl}benzenesulfonamide] returned a Ki of 72 nM. The result for `O=S(=O)(Nc1ccc2c(c1)OC(CN1CCOCC1)CC2)c1ccccc1` (stereo not drawn) [Example 25, N-[2-(morpholin-4-ylmethyl)-3,4-dihydro-2H-chromen-7-yl]benzenesulfonamide] reads 26 nM. The result for `O=S(=O)(Nc1ccc2c(c1)OC(CN1CCSCC1)CC2)c1ccccc1` (stereo not drawn) [Example 26, N-[2-(thiomorpholin-4-ylmethyl)-3,4-dihydro-2H-chromen-7-yl]benzenesulfonamide] reads 9 nM.

Compound `C[C@@H](NCC1CCc2ccc(NS(=O)(=O)c3ccccc3)cc2O1)C1CCCCC1` (stereo partly drawn) [Example 27, N-[2-({[(1R)-1-cyclohexylethyl]amino}methyl)-3,4-dihydro-2H-chromen-7-yl]benzenesulfonamide] displayed a Ki of 7 nM. As for `O=S(=O)(Nc1ccc2c(c1)OC(CNCCCO)CC2)c1ccc2ccccc2c1` (stereo not drawn) [Example 28, N-(2-{[(3-Hydroxypropyl)amino]methyl}-3,4-dihydro-2H-chromen-7-yl)naphthalene-2-sulfonamide], the affinity, expressed as Ki, was 5 nM. Regarding `COc1ccc(S(=O)(=O)Nc2ccc3c(c2)OC(CNCCCO)CC3)cc1` (stereo not drawn) [Example 29, N-(2-{[(3-hydroxypropyl)amino]methyl}-3,4-dihydro-2H-chromen-7-yl)-4-methoxybenzenesulfonamide], the affinity, expressed as Ki, was 39 nM.

In turn, `O=S(=O)(Nc1ccc2c(c1)OC(CNCCCO)CC2)c1ccc(F)cc1` (stereo not drawn) [Example 30, 4-fluoro-N-(2-{[(3-hydroxypropyl)amino]methyl}-3,4-dihydro-2H-chromen-7-yl)benzenesulfonamide] displayed a Ki of 49 nM. The result for `O=S(=O)(Nc1ccc2c(c1)OC(CNCCCO)CC2)c1ccc(Cl)cc1` (stereo not drawn) [Example 31, 4-chloro-N-(2-{[(3-hydroxypropyl)amino]methyl}-3,4-dihydro-2H-chromen-7-yl)benzenesulfonamide] reads 11 nM.
